From US20250011316A1, “PEROXIREDOXIN 3 INHIBITORS AND METHODS OF USE FOR TREATING CANCER” (Wake Forest University Health Sciences, priority 2022, published 2025)
≈ marks a conversion by molar mass, not a printed value.

Tests used:
[1] = Solubility Assay (HPLC); format: physicochemical; settings: HEPES/NaCl buffer, aqueous with cosolvent or surfactant or cyclodextrin, kinetic from dmso stock; 20 mM HEPES, 100 mM NaCl, pH 7.5, 18-24 hours at ambient temperature; read-out: Solubility
Description: A 20 mM stock solution was made for each compound in DMSO. To measure solubility, 0.03-0.05 mL of the stock was added to 0.27 mL 20 mM HEPES, 100 mM NaCl, pH 7.5. The solution was mixed and rotated 18-24 hours at ambient temperature. The next day, solutions were centrifuged for 10 min at 20,000×g at […] to remove insoluble, solid material. Next, 100 μL of the supernatant containing the soluble compound was added to 900 μL DMSO and High Performance Liquid Chromatography was performed as described in Table 1 and either HIPLC gradient 1 (Table 2) or HIPLC gradient 2 (Table 3). For each analog, a 200 μM standard and a 20 μM standard were prepared and run in parallel (standards were dissolved completely in […]). The amount ofLcompound in the experimental sample was calculated by comparing the area under the curve for compound peak to the area for the closest standard and correcting for dilution.

[2] = tested on: human SK—OV-3 ovarian cancer cells; assay: Cellular Activity Assay (cytotoxicity, crystal violet); format: cell-based; settings: Homo sapiens, SK—OV-3 cells, treated for 48 hr, 0.1-100 μM, crystal violet absorbance at 540 nm
Excerpt: (§1) To test the activity of compounds, two complimentary assays were used as described below. The Biochemical PRX3 Inhibition Assay tests the ability of each compound to crosslink PRX3 in a simple, in vitro system. In the Cellular Activity Assay, we are testing the ability of compounds to kill SK—OV-3 ovarian cancer cells.
The Cellular Activity Assay measures the EC50 of each compound in human SK—OV-3 ovarian cancer cells TS to be taken into the cell, transported to the mitochondria, and crosslink PRX3.
The cytotoxicity of compounds was measured as described in Nelson et al. (2021) Antioxidants (Basel) 10, 150; Cunniff et al. (2015) PloS one 10, e0127310; and Newick et al. (2012) PloS one 7, e39404. SK—OV-3 is an adherent, epithelial, adenocarcinoma cell line obtained from ATCC (ref #: HTB-77). SK—OV-3 cells are resistant to the commonly used chemotherapeutics, cis-platinum and doxorubicin. For this […], SK—OV-3 cells were plated in a 96-well plate. After 24 h recovery, the cells were treated for 48 hr with multiple concentrations of each compound ranging from 0.1-100 μM.
Cells were washed with PBS to remove dead cells and the remaining live cells were fixed with 3.0% formaldehyde and stained with 0.1% crystal violet. The amount of crystal violet was determined by reading the absorbance at 540 nm (crystal violet dye dissolved in 100% methanol) using a plate reader. The signal for crystal violet dye is proportional to the biomass of remaining live cells. GraphPad Prism9 software was used to calculate the effective inhibitory concentration (EC50) of test compounds. Results for each compound, are normalized to the amount of cells in control wells treated with the equivalent concentration of DMSO (negative control). TS or Compound 4 were included in each set of assays as a positive control.

[3] = target: T1, purified human PRX3 (Homo sapiens, UniProt P30048); assay: Biochemical PRX3 Inhibition Assay (non-reducible crosslink by SDS PAGE + single adduct by MALDI-TOF MS); settings: 100 μM PRX3 with TRX2/thioredoxin reductase/NADPH system and hydrogen peroxide, 1-2 hr at 37° C.
T1 construct: made in house
T1 sequence (P30048 62-256): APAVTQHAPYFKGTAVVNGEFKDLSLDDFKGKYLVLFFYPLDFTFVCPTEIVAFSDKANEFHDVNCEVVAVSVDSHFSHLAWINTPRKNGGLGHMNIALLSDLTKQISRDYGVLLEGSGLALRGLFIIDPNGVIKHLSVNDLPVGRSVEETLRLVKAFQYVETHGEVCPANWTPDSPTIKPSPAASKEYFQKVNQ
Excerpt: The compounds described herein generally react with two essential cysteine residues in the mitochondrial peroxidase PRX3, leading to the formation of a non-reducible, covalent crosslink of two PRX3 monomers. This crosslink inactivates PRX3. Increased PRX3 crosslink is associated with mitochondrial stress, increased cell death in cell models of malignant mesothelioma and is associated with decreased tumor volume in a mouse model. Cunniff et al. (2015) PloS one 10, e0127310.
as §1
This assay tests the ability of each compound to form a covalent adduct with PRX3. The assay is performed as described in Nelson et al. (2021) Antioxidants (Basel) 10, 150; and Cunniff et al. (2015) PloS one 10, e0127310, and follows the appearance of non-reducible PRX3 crosslinks by SDS PAGE gel electrophoresis and follows the appearance of single PRX3 adducts by mass spectrometry. For this assay, purified human PRX3, hydrogen peroxide (the PRX3 substrate) and all the components required to enable PRX3 to catalytically cycle (thioredoxin-thioredoxin reductase-NAPDH system) are included (details below).
The biochemical PRX3 Inhibition assay contains 100 μM PRX3, 50 μM human TRX2, 0.5 μM mouse thioredoxin reductase, and a NADPH regenerating system composed of 3.2 mM glucose 6-phosphate, 3.2 U/ml glucose 6-phosphate dehydrogenase and 0.4 mM NADPH. Samples are incubated for 1-2 hr at 37° C. with either 0.2 mM TS (positive control), compounds or an equivalent volume of DMSO (negative control). During this incubation, hydrogen peroxide is added to induce turnover of PRX3. Reactions are stopped by the addition of a buffer containing 100 mM dithiothreitol (to break disulfide bonds) and SDS (detergent to denature proteins). NADPH, Glucose 6-Phosphate, and glucose 6-phosphate dehydrogenase were purchased from Sigma Aldrich. PRX3, thioredoxin, and thioredoxin reductase were all purified to >98% purity in the Lowther laboratory according to protocols referenced in Nelson et al. (2021) Antioxidants (Basel) 10, 150; and Cunniff et al. (2015) PloS one 10, e0127310.
To measure the amount of PRX3 crosslink, proteins in the reaction were separated by SDS-polyacrylamide gel electrophoresis and stained for total protein using GelCode Blue (Life Technologies). The amount of unmodified PRX3 and TS-PRX3 crosslink was measured by densiometric analysis of the signal for the PRX3 band running at the MW of a PRX3 crosslink (˜46 kDa) compared to the PRX3 signal at the MW of the un-modified PRX3 (−23 kD).
To measure covalent adduct formation on a single PRX3 monomer, each reaction was exchanged into a mass spectrometry compatible buffer containing 40 mM ammonium citrate, pH 8.3 made in HPLC water. Sample was mixed 1:1 with a matrix solution containing 30 mg/mL sinapinic acid in 70% (vol/vol) acetonitrile, 0.2% formic acid and spotted to onto the sample plate. PRX3 mass was measured by MALDI-TOF MS analysis on a Bruker Daltonics MALDI-TOF MS spectrometer. Spectra were analyzed in FLEXAnalysis Software. The intensity of the reduced PRX3 peak (SH) and intensity of the analog adduct peak was determined and corrected for background signal at the adduct peak in the DMSO control. The fraction of single analog adduct in the monomer peak was determined by dividing the intensity of the adduct peak by the summed intensity of the SH and adduct peaks.

Structure (SMILES) | solubility [1] [µM] | PRX3 Inhibition (Crosslink + Mono-adduct) [3] | EC50 [2] [µM] | EC50 ([2]; SK-OV-3, 48 h) [µM]
C=C(NC(=O)c1csc(-c2ccc(CNC(=O)OCC3CCOCC3)cc2)n1)C(=O)NC(=C)C(=O)OC [Compound 45, Methyl 2-(2-(2-(4-(((((tetrahydro-2H-pyran-4-yl)methoxy)carbonyl)amino)methyl)phenyl)thiazole-4-carboxamido)acrylamido)acrylate] | < 100 | ++ (50-90%) | 1 to 10 | –
C=C(NC(=O)c1csc(N2CCC(NC(=O)C3CCOCC3)CC2)n1)C(=O)NC(=C)C(=O)OC [Compound 46, Methyl 2-(2-(2-(4-(tetrahydro-2H-pyran-4-carboxamido)piperidin-1-yl)thiazole-4-carboxamido)acrylamido)acrylate] | 100 to 1000 (≈ 49.2 to 492 µg/mL) | +++ (>90%) | 1 to 10 | –
C=C(NC(=O)c1csc(N2CCN(C(=O)COCCOC)CC2)n1)C(=O)NC(=C)C(=O)OC [Compound 47, Methyl 2-(2-(2-(4-(2-(2-methoxyethoxy)acetyl)piperazin-1-yl)thiazole-4-carboxamido)acrylamido)acrylate] | > 1000 | ++ (50-90%) | – | 25 to 100
C=C(NC(=O)c1csc(-c2ccc(CNC(=O)OCCOCCNC(=O)OC(C)(C)C)cc2)n1)C(=O)NC(=C)C(=O)OC [Compound 49, Methyl 2-(2-(2-(4-(13,13-dimethyl-3,11-dioxo-4,7,12-trioxa-2,10-diazatetradecyl)phenyl)thiazole-4-carboxamido)acrylamido)acrylate] | < 100 | +++ (>90%) | – | 1 to 10
C=C(NC(=O)c1csc(N2CCC(C(=O)NC3CCOCC3)CC2)n1)C(=O)NC(=C)C(=O)OC [Compound 53, Methyl 2-(2-(2-(4-((tetrahydro-2H-pyran-4-yl)carbamoyl)piperidin-1-yl)thiazole-4-carboxamido)acrylamido)acrylate] | < 100 | +++ (>90%) | 10 to 25 | –
C=C(NC(=O)c1csc(N2CCC(NC(=O)COC)CC2)n1)C(=O)NC(=C)C(=O)OC [Compound 55, Methyl 2-(2-(2-(4-(2-methoxyacetamido)piperidin-1-yl)thiazole-4-carboxamido)acrylamido)acrylate] | < 100 | ++ (50-90%) | – | 10 to 25

Now from value to molecule, other results behind:

solubility [1] [µM] | PRX3 Inhibition (Crosslink + Mono-adduct) [3] | Structure (SMILES) | EC50 [2] [µM] | EC50 ([2]; SK-OV-3, 48 h) [µM]
< 100 | ++ (50-90%) | C=C(NC(=O)c1csc(-c2ccc(NC(=O)CCCCCCl)cc2)n1)C(=O)NC(=C)C(=O)OC [Compound 48, Methyl 2-(2-(2-(4-(6-chlorohexanamido)phenyl)thiazole-4-carboxamido)acrylamido)acrylate] | 1 to 10 | –
< 100 | + (5-50%) | C=C(NC(=O)c1csc(-c2ccc(CNC(=O)OCCCCCCN=[N+]=[N-])cc2)n1)C(=O)NC(=C)C(=O)OC [Compound 50, Methyl 2-(2-(2-(4-(((((6-azidohexyl)oxy)carbonyl)amino)methyl)phenyl)thiazole-4-carboxamido)acrylamido)acrylate] | 1 to 10 | –
< 100 | +++ (>90%) | C=C(NC(=O)c1csc(N2CCC(CNC(=O)C3CCOCC3)CC2)n1)C(=O)NC(=C)C(=O)OC [Compound 52, methyl 2-(2-(2-(4-((tetrahydro-2H-pyran-4-carboxamido)methyl)piperidin-1-yl)thiazole-4-carboxamido)acrylamido)acrylate] | 10 to 25 | –
< 100 | ++ (50-90%) | C=C(NC(=O)c1csc(N2CCC[C@H](NC(=O)C3CCOCC3)C2)n1)C(=O)NC(=C)C(=O)OC [Compound 54, methyl (S)-2-(2-(2-(3-(tetrahydro-2H-pyran-4-carboxamido)piperidin-1-yl)thiazole-4-carboxamido)acrylamido)acrylate] | 25 to 100 | –
< 100 | ++ (50-90%) | C=C(NC(=O)c1csc(N2C[C@@H](C)N(C(=O)OC(C)(C)C)[C@@H](C)C2)n1)C(=O)NC(=C)C(=O)OC [Compound 56, Tert-butyl (cis)-4-(4-((3-((3-methoxy-3-oxoprop-1-en-2-yl)amino)-3-oxoprop-1-en-2-yl)carbamoyl)thiazol-2-yl)-2,6-dimethylpiperazine-1-carboxylate] | 1 to 10 | –
< 100 | +++ (>90%) | C=C(NC(=O)c1csc(N2CCN(C(=O)OC(C)(C)C)[C@@H](C)C2)n1)C(=O)NC(=C)C(=O)OC [Compound 57, Tert-butyl (S)-4-(4-((3-((3-methoxy-3-oxoprop-1-en-2-yl)amino)-3-oxoprop-1-en-2-yl)carbamoyl)thiazol-2-yl)-2-methylpiperazine-1-carboxylate] | 1 to 10 | –
